Data on 1 compound can be found in patent publication US20230322805A1, “NOVEL PYRIMIDODIAZEPINE DERIVATIVES OR USES THEREOF” (SPARK BIOPHARMA, INC., priority 2020, published 2023).

The subject of series [1] is autophagy-related genes regulated by ATF4 in SH-SY5Y cells. The series can be described thus: RT-qPCR of autophagy-related genes regulated by ATF4. The format is cell-based, human. As to conditions: 5 μM SB1617 with 1 μM thapsigargin, 8 hours, versus thapsigargin alone. On the procedure:
To analyze the level of autophagy-related genes, SH-SY5Y cells were treated with 1 μM thapsigargin for 8 h in the presence or absence of 5 μM SB1617. Total RNA was extracted using the RNeasy kit (Qiagen) according to the manufacturer's instructions. RNA was quantified using NanoVue (GE Healthcare) and cDNA was prepared with AccuPower CycleScript RT PreMix dT20 (Bioneer) according to the manufacturer's instructions. Quantitative RT-polymerase chain reaction (qRT-PCR) experiments were performed using KAPA SYBR FAST ABI Prism qPCR Master Mix (KAPA Biosystems). Data were analyzed with the comparative Ct method and normalized to housekeeping genes.
5-3. ATF4 is a transcription factor, which rises during elF2a-phosphorylation and upregulates genes related to autophagy and oxidation/reduction control as a recovery mechanism during ER stress. To assure this, 5 μM SB1617 was treated in SH-SY5Y cells for 8 hours in the presence or absence of 1 μM thapsigargin, and then autophagy-related genes regulated by ATF4 were identified with RT-qPCR.

The nature of series [2]: Blood-brain barrier penetration test in male ICR mice. The format is in vivo, mouse. As to conditions: for concentration at 0.5 h / concentration at 3 h: male, 5 mg/kg. The method, then: After intraperitoneal administration (5 mg/kg, 3.3 mL/kg) of the compound (SB1617, 5% DMSO/[…]) according to the present invention to CD-1 (ICR) male mice (7 weeks old, KOATECH, Korea), blood samples were collected using heparinized tubes at designated time points (0.5 and 3 hours) in the orbital venous plexus, mice were sacrificed, and brain tissues were harvested. Plasma and brain homogenate samples were analyzed with an LC-MS/MS analyzer (Agilent 1260, Agilent 6460). The proportion of the compound according to the invention (SB1617) in brain and plasma was calculated.
6-1. In order to evaluate the suitability of the compound (SB1617) according to this invention in vivo, pharmacokinetic properties and blood-brain barrier penetration properties were identified using male ICR mice according to the methods described in Examples 1-15 and 1-16.
In addition, as shown in FIG. 28 and Table 3, it was confirmed that at least 50% of SB1617 was detected in the brain compared to plasma.

The target in the next series is T1, DNAJC3 (Homo sapiens, UniProt Q13217).
T1 sequence (Q13217 32-504): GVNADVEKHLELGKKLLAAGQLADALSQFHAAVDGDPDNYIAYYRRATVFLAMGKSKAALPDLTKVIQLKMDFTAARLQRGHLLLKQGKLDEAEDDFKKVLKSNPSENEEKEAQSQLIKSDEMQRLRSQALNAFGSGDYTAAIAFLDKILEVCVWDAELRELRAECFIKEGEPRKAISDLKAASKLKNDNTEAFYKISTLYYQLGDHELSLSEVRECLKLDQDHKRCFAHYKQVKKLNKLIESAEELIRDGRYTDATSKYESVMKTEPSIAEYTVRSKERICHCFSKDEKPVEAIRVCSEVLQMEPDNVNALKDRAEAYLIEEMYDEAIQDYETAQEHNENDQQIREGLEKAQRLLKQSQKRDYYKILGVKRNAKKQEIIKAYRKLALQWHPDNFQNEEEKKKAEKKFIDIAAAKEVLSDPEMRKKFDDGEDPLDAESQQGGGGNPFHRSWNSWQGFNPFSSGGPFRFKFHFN
Nature of the series: TS-FITGE thermal stability shift. In kind it is binding. The arrangement: endogenous in cells; host or cells: HEK293 BiFC-tau cells (TS-FITGE, CETSA). As to conditions: 10 μM, 200 nM thapsigargin, 3 hours, HEK293 BiFC-tau cells. The method, then:
HEK293 BiFC-tau cells were treated with dimethylsulfoxide (DMSO, 0.1%) and a compound according to the present invention (10 μM) in the presence of thapsigargin (200 nM) for 3 hours. The cell suspension was heated at the indicated temperature range for 3 minutes and then at 25° C. for 3 minutes. The heated cells were washed with PBS and resuspended in lysis buffer A (0.4% NP-40 in PBS supplemented with protease inhibitor cocktail). For cell lysis, cell suspensions were freeze-thawed in liquid nitrogen three times. The cell lysate was washed by centrifugation at 20000 g, 4° C. for 20 minutes. Protein concentration of the soluble fraction was quantified by Pierce BCA protein assay. After precipitating 50 μg of protein with cold acetone, it was centrifuged at […] and 4° C. for 7 minutes. The residual pellet was resuspended in 10 μl of conjugation buffer (30 mM Tris-HCl at pH 8.6, 30 mM thiourea, 7 M urea and 4% w/v CHAPS). 1 μl of 0.4 mM Cy2-N-hydroxysuccinimide(Cy2-NHS) (for DMSO-treated group), Cy3-NHS (for SB1607-treated group) or Cy5-NHS (for SB1617-treated group) was mixed with the protein and incubated at 4° C. for 45 minutes. […] Protein spot locations and fluorescence signals were analyzed with DeCyder 2D software ver. […]

Where two headings read alike, the source gives them in different places.

As for `CN(Cc1ccc(Cl)cc1)c1ncnc2c1[C@@H]1OC[C@H](CN2)N1S(=O)(=O)c1ccc([N+](=O)[O-])cc1` [Compound 117], in series [1], the “transcription level of autophagy-related genes regulated by ATF4” value is “increased the transcription level of autophagy-related genes”. For the same compound, the Kp at 0.5 h in series [2] (CD-1 (ICR), mouse, brain, ip, 0.5 h after I.P. 5 mg/kg, read-out: Brain/Plasma ratio) is 0.5 ± 0.14. For the same compound, the Kp at 3 h in series [2] (CD-1 (ICR), mouse, brain, ip, 3 h after I.P. 5 mg/kg, read-out: Brain/Plasma ratio) was found to be 0.66 ± 0.21. Besides, the Kp in series [2] (CD-1 (ICR), mouse, in vivo, ip, I.P. 5 mg/kg, read-out: SB1617 detected in the brain compared to plasma) was ≥ 0.5. In addition, in series [2] (intraperitoneal injection), the blood-brain barrier crossing entry is “sufficient blood-brain barrier crossing”. In addition, the concentration at 0.5 h in series [2] (CD-1 (ICR), mouse, in vivo, ip, 0.5 h after I.P. 5 mg/kg, read-out: Concentration, Brain tissue) came to 421 ± 58.2 ng/mL; in series [2] (CD-1 (ICR), mouse, in vivo, ip, 0.5 h after I.P. 5 mg/kg, read-out: Concentration, Plasma), 885 ± 187 ng/mL. Further, the concentration at 3 h in series [2] (CD-1 (ICR), mouse, in vivo, ip, 3 h after I.P. 5 mg/kg, read-out: Concentration, Brain tissue) came out at 55.9 ± 5 ng/mL; in series [2] (CD-1 (ICR), mouse, in vivo, ip, 3 h after I.P. 5 mg/kg, read-out: Concentration, Plasma) it was 92.4 ± 29.8 ng/mL. The “thermal stability of protein (TS-FITGE)” value at DNAJC3 was “thermal stability of the protein was improved”.
